Test results reported in patent US9321776B2, “Isochromene derivatives as phoshoinositide 3-kinases inhibitors” (CHIESI FARMACEUTICI S.p.A., priority 2013, dated 2016).
Structures can show the parent of a compound that is named as a salt.

Key:
PI3Kδ = target: T1, PI3Kδ (Homo sapiens, UniProt O00329); assay: PI3K enzyme inhibitory activity in the cell free assay (ADP-Glo Kinase Assay); format: biochemical; details: human recombinant PI3Kδ, ATP 80 μM; read-out: PI3K delta inhibition
T1 construct: purchased Millipore Ltd (Billerica, Mass.)
T1 sequence (O00329 1-1044): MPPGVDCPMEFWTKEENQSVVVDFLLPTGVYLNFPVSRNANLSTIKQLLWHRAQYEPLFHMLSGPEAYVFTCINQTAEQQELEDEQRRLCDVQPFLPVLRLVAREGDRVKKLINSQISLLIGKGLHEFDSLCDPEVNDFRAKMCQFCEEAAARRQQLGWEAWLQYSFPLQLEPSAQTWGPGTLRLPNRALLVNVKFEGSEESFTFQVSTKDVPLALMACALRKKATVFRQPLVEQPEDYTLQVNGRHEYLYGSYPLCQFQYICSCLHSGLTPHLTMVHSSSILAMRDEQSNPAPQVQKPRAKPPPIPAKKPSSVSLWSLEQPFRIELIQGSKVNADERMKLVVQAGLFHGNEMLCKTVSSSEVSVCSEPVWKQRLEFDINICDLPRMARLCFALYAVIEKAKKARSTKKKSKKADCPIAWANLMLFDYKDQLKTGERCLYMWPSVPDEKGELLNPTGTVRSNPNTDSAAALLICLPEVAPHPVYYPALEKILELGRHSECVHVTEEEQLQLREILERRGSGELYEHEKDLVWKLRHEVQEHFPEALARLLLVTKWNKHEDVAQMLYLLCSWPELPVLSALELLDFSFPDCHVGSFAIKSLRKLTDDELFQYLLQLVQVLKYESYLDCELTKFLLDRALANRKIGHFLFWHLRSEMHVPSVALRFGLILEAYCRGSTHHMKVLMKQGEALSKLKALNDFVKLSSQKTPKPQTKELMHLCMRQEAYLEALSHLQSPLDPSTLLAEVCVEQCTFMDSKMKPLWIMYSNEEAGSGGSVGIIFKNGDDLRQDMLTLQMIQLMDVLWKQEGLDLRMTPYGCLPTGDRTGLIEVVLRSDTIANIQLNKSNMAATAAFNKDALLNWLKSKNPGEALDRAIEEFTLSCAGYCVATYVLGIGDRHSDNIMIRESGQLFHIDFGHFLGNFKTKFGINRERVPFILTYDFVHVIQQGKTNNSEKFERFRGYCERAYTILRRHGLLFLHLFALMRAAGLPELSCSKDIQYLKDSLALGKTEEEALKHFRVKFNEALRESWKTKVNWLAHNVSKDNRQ

PI3Kγ = target: T2, PI3Kγ (Homo sapiens, UniProt P48736); assay: as above; format: biochemical; details: human recombinant PI3Kγ, ATP 30 μM; read-out: PI3K gamma inhibition
T2 construct: purchased Millipore Ltd (Billerica, Mass.)
T2 sequence (P48736 whole entry): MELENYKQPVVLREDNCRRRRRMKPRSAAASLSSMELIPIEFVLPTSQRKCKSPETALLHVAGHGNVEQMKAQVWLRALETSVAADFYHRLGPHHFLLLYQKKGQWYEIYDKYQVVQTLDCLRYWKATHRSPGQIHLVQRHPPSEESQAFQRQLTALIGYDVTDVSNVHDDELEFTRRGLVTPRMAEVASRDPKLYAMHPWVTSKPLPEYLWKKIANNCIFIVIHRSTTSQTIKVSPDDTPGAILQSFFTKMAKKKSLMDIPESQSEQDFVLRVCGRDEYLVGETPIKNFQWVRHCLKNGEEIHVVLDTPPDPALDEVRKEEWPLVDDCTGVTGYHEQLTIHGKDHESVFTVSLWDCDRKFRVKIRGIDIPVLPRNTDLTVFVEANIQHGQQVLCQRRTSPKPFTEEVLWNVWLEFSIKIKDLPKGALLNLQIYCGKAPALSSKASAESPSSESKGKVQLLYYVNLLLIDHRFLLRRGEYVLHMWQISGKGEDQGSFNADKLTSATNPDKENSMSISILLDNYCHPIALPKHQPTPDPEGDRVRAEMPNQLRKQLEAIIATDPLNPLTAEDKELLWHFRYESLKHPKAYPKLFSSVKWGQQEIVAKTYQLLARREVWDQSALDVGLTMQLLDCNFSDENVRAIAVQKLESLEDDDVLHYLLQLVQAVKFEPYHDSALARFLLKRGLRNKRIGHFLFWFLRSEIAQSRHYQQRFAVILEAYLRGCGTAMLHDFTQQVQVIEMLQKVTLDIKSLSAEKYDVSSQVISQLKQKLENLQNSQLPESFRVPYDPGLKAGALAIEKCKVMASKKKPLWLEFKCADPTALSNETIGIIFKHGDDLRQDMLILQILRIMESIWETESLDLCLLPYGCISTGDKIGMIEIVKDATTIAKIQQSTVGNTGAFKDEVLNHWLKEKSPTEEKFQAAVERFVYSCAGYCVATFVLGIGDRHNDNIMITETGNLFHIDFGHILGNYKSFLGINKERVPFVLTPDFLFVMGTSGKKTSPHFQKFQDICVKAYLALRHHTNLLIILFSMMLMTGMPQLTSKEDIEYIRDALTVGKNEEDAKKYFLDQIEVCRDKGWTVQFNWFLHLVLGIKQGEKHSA

| SMILES | IC50 (PI3Kδ) | IC50 (PI3Kγ) |
| --- | --- | --- |
| Cc1cccc(-c2c(C(C)Nc3ncnc4[nH]cnc34)oc(=O)c3ccccc23)c1 (centres unmarked) [Example 33, 3-(1-(9H-Purin-6-ylamino)ethyl)-4-m-tolyl-1H-isochromen-1-one] | < 10 nM | 10 to 1000 nM |
| CC(c1oc(=O)c2ccccc2c1-c1cccc(S(=O)(=O)N2CCOCC2)c1)n1ncc2c(N)ncnc21 (centres unmarked) [Example 16, 3-(1-(4-Amino-1H-pyrazolo[3,4-d]pyrimidin-1-yl)ethyl)-4-(3-(morpholinosulfonyl)phenyl)-1H-isochromen-1-one] | 10 to 1000 nM | 10 to 1000 nM |
| CC(Nc1ncnc2[nH]cnc12)c1oc(=O)c2ccccc2c1-c1ccc(OCCN2CCOCC2)cc1 (centres unmarked) [Example 26, 3-(1-(9H-Purin-6-ylamino)ethyl)-4-(4-(2-morpholinoethoxy)phenyl)-1H-isochromen-1-one formate] | 10 to 1000 nM | 10 to 1000 nM |
| COc1cncc(-c2nn(C(C)c3oc(=O)c4ccccc4c3-c3ccccc3)c3ncnc(N)c23)c1 (centres unmarked) [Example 57, 3-(1-(4-amino-3-(5-methoxypyridin-3-yl)-1H-pyrazolo[3,4-d]pyrimidin-1-yl)ethyl)-4-phenyl-1H-isochromen-1-one] | 10 to 1000 nM | 10 to 1000 nM |
| O=c1oc(CNc2ncnc3[nH]cnc23)c(-c2cccc(F)c2)c2ccccc12 [Example 21, 3-((9H-Purin-6-ylamino)methyl)-4-(3-fluorophenyl)-1H-isochromen-1-one] | 10 to 1000 nM | 10 to 1000 nM |
| CC(Sc1ncnc2[nH]cnc12)c1oc(=O)c2ccccc2c1-c1cccc(F)c1 (centres unmarked) [Example 14, 3-(1-(9H-Purin-6-ylthio)ethyl)-4-(3-fluorophenyl)-1H-isochromen-1-one] | 10 to 1000 nM | > 1000 nM |
| CC(Nc1ncnc2[nH]ncc12)c1oc(=O)c2ccccc2c1-c1ccccc1 (centres unmarked) [Example 43, 3-(1-(1H-pyrazolo[3,4-d]pyrimidin-4-ylamino)ethyl)-4-phenyl-1H-isochromen-1-one] | 10 to 1000 nM | > 1000 nM |
| O=c1oc(CSc2ncnc3[nH]cnc23)c(-c2ccccc2)c2ccccc12 [Example 10, 3-((9H-Purin-6-ylthio)methyl)-4-phenyl-1H-isochromen-1-one] | > 1000 nM | > 1000 nM |
| CC(c1oc(=O)c2ccccc2c1-c1ccccc1)n1nc(-c2cncc(CO)c2)c2c(N)ncnc21 (centres unmarked) [Example 85, 3-(1-(4-amino-3-(5-(hydroxymethyl)pyridin-3-yl)-1H-pyrazolo[3,4-d]pyrimidin-1-yl)ethyl)-4-phenyl-1H-isochromen-1-one] | 10 to 1000 nM | 10 to 1000 nM |
| CC(c1oc(=O)c2ccccc2c1-c1cccc(S(=O)(=O)N2CCOCC2)c1)n1cnc2c(N)ncnc21 (centres unmarked) [Example 9, 3-(1-(6-Amino-9H-purin-9-yl)ethyl)-4-(3-(morpholinosulfonyl)phenyl)-1H-isochromen-1-one] | 10 to 1000 nM | 10 to 1000 nM |
| CC(c1oc(=O)c2ccccc2c1-c1ccc(CN2CCCCC2)s1)n1nc(-c2cc(O)cc(F)c2)c2c(N)ncnc21 (single isomer, unassigned) [Example 68a, 3-(1-(4-amino-3-(3-fluoro-5-hydroxyphenyl)-1H-pyrazolo[3,4-d]pyrimidin-1-yl)ethyl)-4-(5-(piperidin-1-ylmethyl)thiophen-2-yl)-1H-isochromen-1-one hydrochloride single enantiomers] | 10 to 1000 nM | – |
| CC(c1oc(=O)c2ccccc2c1-c1ccccc1)n1nc(-c2cc(F)cc(Cl)c2)c2c(N)ncnc21 (centres unmarked) [Example 95, 3-(1-(4-amino-3-(3-chloro-5-fluorophenyl)-1H-pyrazolo[3,4-d]pyrimidin-1-yl)ethyl)-4-phenyl-1H-isochromen-1-one] | > 1000 nM | – |
| CC(c1oc(=O)c2ccccc2c1Cc1ccccc1)n1ncc2c(N)ncnc21 (centres unmarked) [Example 20, 3-(1-(4-Amino-1H-pyrazolo[3,4-d]pyrimidin-1-yl)ethyl)-4-benzyl-1H-isochromen-1-one] | 10 to 1000 nM | – |

More lines, now with the values ahead:

| IC50 (PI3Kδ) | IC50 (PI3Kγ) | SMILES |
| --- | --- | --- |
| – | 10 to 1000 nM | CC(c1oc(=O)c2ccccc2c1-c1ccccc1)n1nc(-c2cncc(C#N)c2)c2c(N)ncnc21 (centres unmarked) [Example 102, 5-(4-amino-1-(1-(1-oxo-4-phenyl-1H-isochromen-3-yl)ethyl)-1H-pyrazolo[3,4-d]pyrimidin-3-yl)nicotinonitrile] |
| 10 to 1000 nM | 10 to 1000 nM | CC(c1oc(=O)c2ccccc2c1-c1ccccc1)n1nc(-c2cncc(F)c2)c2c(N)ncnc21 (centres unmarked) [Example 94, 3-(1-(4-amino-3-(5-fluoropyridin-3-yl)-1H-pyrazolo[3,4-d]pyrimidin-1-yl)ethyl)-4-phenyl-1H-isochromen-1-one] |
| 10 to 1000 nM | > 1000 nM | CC(c1oc(=O)c2ccccc2c1-c1ccccc1)n1nc(-c2ccnnc2)c2c(N)ncnc21 (centres unmarked) [Example 53, 3-(1-(4-amino-3-(pyridazin-4-yl)-1H-pyrazolo[3,4-d]pyrimidin-1-yl)ethyl)-4-phenyl-1H-isochromen-1-one] |
| 10 to 1000 nM | > 1000 nM | CC(Nc1ncnn2cccc12)c1oc(=O)c2ccccc2c1-c1ccccc1 (centres unmarked) [Example 83, 4-phenyl-3-(1-(pyrrolo[2,1-f][1,2,4]triazin-4-ylamino)ethyl)-1H-isochromen-1-one] |
| < 10 nM | > 1000 nM | CC(c1oc(=O)c2ccccc2c1-c1ccccc1)n1nc(-c2ccc(S(C)(=O)=O)nc2)c2c(N)ncnc21 (centres unmarked) [Example 97, 3-(1-(4-amino-3-(6-(methylsulfonyl)pyridin-3-yl)-1H-pyrazolo[3,4-d]pyrimidin-1-yl)ethyl)-4-phenyl-1H-isochromen-1-one] |
| 10 to 1000 nM | > 1000 nM | CC(c1oc(=O)c2ccccc2c1C1=CCN(C)CC1)n1nc(-c2cc(O)cc(F)c2)c2c(N)ncnc21 (single isomer, unassigned) [Example 46b, 3-1-(4-amino-3-(3-fluoro-5-hydroxyphenyl)-1H-pyrazolo[3,4-d]pyrimidin-1-yl)ethyl)-4-(1-methyl-1,2,3,6-tetrahydropyridin-4-yl)-1H-isochromen-1-one hydrochloride] |
| < 10 nM | 10 to 1000 nM | COc1ncc(-c2nn(C(C)c3oc(=O)c4ccccc4c3-c3ccccc3)c3ncnc(N)c23)cn1 (centres unmarked) [Example 55, 3-(1-(4-amino-3-(2-methoxypyrimidin-5-yl)-1H-pyrazolo[3,4-d]pyrimidin-1-yl)ethyl)-4-phenyl-1H-isochromen-1-one] |
| < 10 nM | 10 to 1000 nM | CC(c1oc(=O)c2ccccc2c1-c1ccc(CN2CCOCC2)cc1)n1nc(-c2cc(O)cc(F)c2)c2c(N)ncnc21 (centres unmarked) [Example 48, 3-(1-(4-amino-3-(3-fluoro-5-hydroxyphenyl)-1H-pyrazolo[3,4-d]pyrimidin-1-yl)ethyl)-4-(4-(morpholinomethyl)phenyl)-1H-isochromen-1-one hydrochloride] |
| 10 to 1000 nM | 10 to 1000 nM | CC(Nc1ncnc2[nH]cnc12)c1oc(=O)c2ccccc2c1-c1ccc(CN2CCNCC2)cc1 (centres unmarked) [Example 126, 3-(1-(9H-purin-6-ylamino)ethyl)-4-(4-(piperazin-1-ylmethyl)phenyl)-1H-isochromen-1-one dihydrochloride] |
| 10 to 1000 nM | – | CC(c1oc(=O)c2ccccc2c1-c1ccccc1)n1nc(-c2cnc(O)c(F)c2)c2c(N)ncnc21 (centres unmarked) [Example 98, 3-(1-(4-amino-3-(5-fluoro-6-hydroxypyridin-3-yl)-1H-pyrazolo[3,4-d]pyrimidin-1-yl)ethyl)-4-phenyl-1H-isochromen-1-one] |
